Data from patent publication US20210060044A1, “METHODS FOR TREATING BLADDER CANCER BY ACTIVATION OF HEDGEHOG SIGNALING USING A M[…]” (POSTECH Research and Business Development Foundation, priority 2019, published 2021).
Where two headings read alike, the source gives them in different places.

Key:
[1] = tested on: Shh gene; settings: orthotopic BBN-induced mouse tumor, 1 mg per kg every other day for 2 weeks
Description: (§1) Human or mouse bladder samples were snap-frozen in liquid nitrogen, homogenized with a mortar and a pestle, and RNA was extracted using an RNeasy Plus Mini Kit (Qiagen).
(§2) Subsequently, the RNA samples were dissolved in RNase-free water, and their concentration and purity were measured with a spectrophotometer. The TAE/formamide electrophoresis method (Masek et al., 2005) was used for RNA quality analysis. For quantitative RT-PCR of mRNA transcripts, first-strand cDNA was synthesized using a high-capacity cDNA reverse transcriptase kit (Applied Biosystems) containing oligo dT. Quantitative RT-PCR was performed using SYBR Green Supermix (Applied Biosystems) and a one-step cycler (Applied Biosystems), and gene expression was normalized to the housekeeping gene HPRT1.

[2] = tested on: Shh gene; settings: tumor organoids, 1 μM for four consecutive days
Description: as §2

[3] = tested on: BBN-induced bladder tumor cells; settings: nude mice, treated 2 weeks
Description: (§3) To evaluate the effect of DNA methyltransferase inhibition on the growth of bladder cancer under immunocompromised conditions, nude mice (14 mice) orthotopically injected with BBN-induced bladder tumor cells were divided into a vehicle control (7 mice) and a 5′-azacitidine-treated group (7 mice), and then treated with a vehicle and 5′-azacitidine for 2 weeks, respectively. In addition, allograft sections of the vehicle control or 5′-azacitidine-treated mice were subjected to H&E staining, and the experimental scheme is shown in FIG. 4A.

[4] = tested on: Ck18; settings: tumor allografts, nude mice
Description: as §3

[5] = tested on: luminal markers (Upk1a, Upk1b, Upk2, Upk3a, Upk3b, Krt20, Krt18); settings: tumor allografts; normalized to Krt5
Description: as §1, §2, §3

[6] = tested on: luminal and basal signatures; settings: tumor allografts, RNA-Seq
Description: Total RNA was extracted with a TRIzol reagent (Thermo Fisher) according to the manufacturer's instructions. RNA-seq libraries were constructed using the TruSeq sample prep kit V2 (Illumina). […] The RNA-seq libraries were sequenced using a NextSeq platform with 75-bp single-end reads.
Differentially expressed genes were analyzed using Cufflinks tools (Trapnell et al., 2012). From all annotated genes, genes were removed when the rpkm average of all sequenced samples is less than 1.0, such that the depth to which the genes are assigned may be low. GSEA was performed according to the instructions (RRID: SCR_003199). To generate a customized gene set for a luminal marker and a basal marker, a representative gene for each signature was obtained from a previous study (Damrauer et al., 2014). The RNA-seq data set used herein was deposited in NCBI GEO (Accession No.: GSE129441).
In addition, using standard luminal and basal signatures obtained from previous research, GSEA of tumor allografts treated with the vehicle control and 5′-azacitidine from RNA-Seq data was performed.

[7] = tested on: J82
Description: (§4) Frozen human bladder tissue samples were obtained from the tissue bank of Seoul National University Hospital. For fresh bladder tumor samples, 0.5 to 1-cm^3 bladder tissue specimens were obtained from patients undergoing cystectomy or TURBT according to a protocol approved by the SNUH Institutional Review Board (IRB No.: 1607-135-777). Informed consent to patient information provision and publishing was obtained from the patients. The cancer tissues were evaluated before transport to POSTECH for additional analysis. For experiments for bladder cancer cell lines, J82 (RRID: CVCL_0359), T24 (RRID: CVCL_0554) and TCC (RRID: CVCL_1738) were used. All cell lines were authenticated by a STR profiling method, and tested negative for mycoplasma contamination.
as §2

[8] = tested on: T24
Description: as §4, §2

[9] = tested on: TCC-SUP
Description: as §4, §2

[10] = tested on: J82 cells; settings: J82 orthotopic xenograft, treated one month; vehicle: full-fledged muscle-invasive carcinoma
Description: (§5) To investigate the functional role of SHH expression in the growth of human bladder tumors and the effects of the Hh/BMP signaling feedback between tumors and the stroma on the subtype conversion of human muscle-invasive urothelial carcinoma, xenografts in which J82 cells were orthotopically injected into immunocompromised mice (NOD/SCID/IL2Rgnull) (14 mice) were treated with 5′-azacitidine for one month, and orthotopic xenografts in the mice treated with the vehicle control (7 mice) or 5′-azacitidine (7 mice) were subjected to H&E staining.

[11] = tested on: luminal markers (FOXA1 and GATA3) and basal markers (CDH3 and KRT6A); settings: J82 tumor xenografts
Description: as §2, §5

[12] = tested on: CpG shore upstream of the CpG island of the Shh promoter region; settings: 1 mg per kg every other day for 2 weeks; vehicle control 62%
Description: (§6) The mice were administered 8 mg of tamoxifen (TM; Sigma) per 30 g of body weight by oral gavage for three consecutive days. Male mice aged 8 to 10 weeks were used. […] In each experiment, the mice were randomly selected for a drug/TM or control-treated group. The experiments involving mice were performed under isoflurane anesthesia.
The DNA methylation status of mouse and human Shh was confirmed using genomic DNA bisulfite sequencing. For bisulfite conversion, 1 μg of genomic DNA was converted using a MethylEdge Bisulfite Conversion System (Promega) according to the manufacturer's instructions. The genomic sequences of the regulatory regions of mouse Shh and human SHH were obtained from the NCBI nucleotide database (Mus musculus: NC_000071.6, Homo sapiens: NG_007504.2), and the CpG island (island) and CpG shores in the regulatory region were identified using Methprimer 2.0 (Li and Dahiya, 2002) (RRID: SCR_010269). The 2kb regions upstream and downstream of the CpG island were referred to as a “CpG upshore” and a “CpG downshore,” respectively. […]
(§7) The sequencing data was assembled using SnapGene software (https://snapgene.com/, RRID: SCR_015053) and the MUSCLE: multiple sequence alignment tool (haps://www.ebi.ac.uk/Tools/msa/muscle/ RRID: SCR_011812). […] The methylated CpG sites were counted and distinguished from unmethylated CpG sites.

[13] = tested on: CpG shore upstream of the CpG island of the Shh promoter region; settings: tumor organoids, 1 μM for four consecutive days; vehicle control 73%
Description: The DNA methylation status of mouse and human Shh was confirmed using genomic DNA bisulfite sequencing. For bisulfite conversion, 1 μg of genomic DNA was converted using a MethylEdge Bisulfite Conversion System (Promega) according to the manufacturer's instructions. The genomic sequences of the regulatory regions of mouse Shh and human SHH were obtained from the NCBI nucleotide database (Mus musculus: NC_000071.6, Homo sapiens: NG_007504.2), and the CpG island (island) and CpG shores in the regulatory region were identified using Methprimer 2.0 (Li and Dahiya, 2002) (RRID: SCR_010269). […]
as §7
BBN-induced bladder tumors were minced, and then incubated in DMEM (Gibco) containing collagenase I and II (20 mg/ml each) and thermolysin (250 KU/ml) at 37° C. for 2 hours, followed by 5-minute trituration every 30 minutes. […] After lysis of red blood cells in ACK lysis buffer (Gibco), the cells were washed with DMEM containing 10% fetal bovine serum (Millipore) and counted using a hemocytometer (Sigma). […]

[14] = tested on: BBN-induced invasive carcinoma; settings: BBN 4 months, then treatment 2 months with continued BBN; found in vehicle control
Description: as §6
(§8) 0.1% N-butyl-N-4-hydroxybutyl nitrosamine (BBN, TCI) was dissolved in drinking water, and the BBN-containing water was placed in a dark bottle, and provided ad libitum to mice for 4 to 6 months. The BBN-containing water was replaced twice a week. Bladders were collected and analyzed 4 to 6 months after BBN administration.
(§9) Tumor specimens were fixed in 10% neutral-buffered formalin for 12 hours, embedded in paraffin, and then sectioned into 4-um thick sections using a microtome. The slides were stained with hematoxylin and counter-stained with eosin for histological analysis. For immunostaining, tumor samples were embedded in an OCT compound (Tissue-Tek) and sectioned into 10-um-thick sections with a cryostat (Leica).

[15] = tested on: BBN-induced muscle-invasive urothelial carcinoma; settings: Col1a2CreER;Smoflox/flox or Col1a2CreER;Gli2flox/flox mice, BBN 6 months
Description: (§10) For a gene deletion experiment, Col1a2^CreER (RRID: IMSR_JAX: 029235) mice were mated with the Smo^flox/flox (RRID: IMSR_JAX: 007926) or Gli2^flox/flox (RRID: IMSR_JAX: 004526) strains, thereby obtaining Col1a2^CreER; Smo^flox/flox or Col1a2^CreER;Gli2^flox/flox mice.
The mice were administered 8 mg of tamoxifen (TM; Sigma) per 30 g of body weight by oral gavage for three consecutive days. Male mice aged 8 to 10 weeks were used. […] In each experiment, the mice were randomly selected for a drug/TM or control-treated group. The experiments involving mice were performed under isoflurane anesthesia. All procedures were performed according to a protocol approved by the Institutional Animal Care and Use Committee at POSTECH (IACUC number: POSTECH-2017-0094).
as §8

[16] = tested on: BBN-induced bladder tumor cells
Description: as §6
Bladder tumors were dissociated into single cells as described above. The cells were resuspended in 80 ml DMEM containing 50% Matrigel (BD Bioscience), and then submucosally injected into the anterior aspect of the bladder dome using a 29-gauge insulin syringe.
as §9
To evaluate the effect of the inhibition of DNA methyltransferase (DNMT) on the growth of bladder cancer, recently established transplantation models were used, and these models allow the proliferation of tumor cells transplanted in a microenvironment in vivo by injecting bladder cancer cells into the wall of the bladder dome.

[17] = tested on: BBN-induced tumors; settings: TM three days, transplantation, treatment 1.5 months
Description: as §10
The mice were administered 8 mg of tamoxifen (TM; Sigma) per 30 g of body weight by oral gavage for three consecutive days. Male mice aged 8 to 10 weeks were used. […] The dosing duration is described in the brief description of the drawings. In each experiment, the mice were randomly selected for a drug/TM or control-treated group. The experiments involving mice were performed under isoflurane anesthesia.
Bladder tumors were dissociated into single cells as described above. The cells were resuspended in 80 ml DMEM containing 50% Matrigel (BD Bioscience), and then submucosally injected into the anterior aspect of the bladder dome using a 29-gauge insulin syringe. An abdominal incision and skin were closed with a 4-0 nylon suture, and the surgical site was disinfected with alcohol. Bladder tumor organoids were selected, and resuspended in a 50% organoid medium and 50%

With `Nc1ncn([C@@H]2O[C@H](CO)[C@@H](O)[C@H]2O)c(=O)n1` [5′-azacitidine] the “Shh gene expression level, increase compared to the vehicle control” value [1] was 11 fold, the “Shh gene expression level, increase compared to the vehicle control” value [2] was 9 fold and the “tumor lesions compared with untreated group (H&E)” value [3] was “smaller tumor lesions”. For the same compound, the “expression of luminal subtype marker Ck18 (immunostaining)” value [4] was “increased”, the “Krt18 expression, increase compared with the vehicle control” value [5] was 2 fold and the “Krt20 expression, increase compared with the vehicle control” value [5] was 1.5 fold. The “Upk1a expression, increase compared with the vehicle control” value [5] was 3 fold, the “Upk1b expression, increase compared with the vehicle control” value [5] was 2 fold and the “Upk2 expression, increase compared with the vehicle control” value [5] was 2 fold. For the same compound, the “Upk3a expression, increase compared with the vehicle control” value [5] was 2.5 fold, the “Upk3b expression, increase compared with the vehicle control” value [5] was 2 fold and the “basal marker expression (GSEA)” value [6] was “relatively low level”. The “luminal signature (GSEA)” value [6] was “strong luminal signature”, the “SHH expression, increase compared with untreated control” value (from here on “SHH expression, increase”) [7] was 6 fold and the “SHH expression, increase” value [8] was 7 fold. The “SHH expression, increase” value [9] was 3 fold, the “cancer lesions in the bladder (H&E)” value [10] was “much smaller cancer lesions” and the “basal marker CDH3 expression, decrease compared with the vehicle” value [11] was 6 fold. The “basal marker KRT6A expression, decrease compared with the vehicle” value [11] was 9 fold, the “luminal marker FOXA1 expression, increase compared with the vehicle” value [11] was 1.8 fold and the “luminal marker GATA3 expression, increase compared with the vehicle” value [11] was 1.8 fold. The “methylation level in the CpG shore upstream of the CpG island of the Shh promoter region” value [12] was 36%, the “methylation level in the CpG shore upstream of the CpG island of the Shh promoter region” value [13] was 43% and the “invasive carcinoma (H&E)” value [14] was “not found”. The “anticancer initiation effect in TM-treated group (stromal Hh response removed)” value [15] was “reversed”, the “growth of bladder tumors” value ([16]; immunocompetent wild-type mice) was “completely inhibits” and the “invasive carcinoma (H&E)” value ([16]; treated for 1.5 months, appeared in vehicle control) was “no invasive carcinoma appeared”. The “anticancer propagation effect in strains with genetically inhibited stromal Hh signaling pathway” value [17] was “disappeared”.
